Legend:
[1] = tested on: S. aureus Newman; assay: fitness (endpoint OD595 vs no drug) (fraction); higher = more growth; settings: one replicate, main component drawn
Summary of the method: (§1)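 Fitness is computed from the optical density at which cultures reach stationary phase, divided by the robust mean of no-drug control wells. Any value above 1 is set to 1. Cultures started at OD595 0.01 in 384-well plates with TSB, LB Lennox or CY at 37 °C, and OD595 was read every 30 min for 14 h against a first-reading background.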

[2] = tested on: S. pneumoniae D39V; assay: as above; settings: main component drawn
Summary of the method: as §1

[3] = tested on: B. subtilis 168; assay: Bliss interaction score (quartile over a dose matrix) (fitness difference); higher = more antagonism (negative = synergy); settings: main component drawn
Summary of the method: (§2)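 The Bliss score is observed fitness minus expected fitness, where the expected value is the product of single-drug fitness values inferred from combination data. Fitness is OD595 at entry into stationary phase normalised to the plate's robust no-drug mean and capped at 1. Scores are reported as quartiles spanning technical, biological and donor/recipient replicates.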

[4] = tested on: S. aureus DSM 20231; assay: as above; settings: main component drawn
Summary of the method: as §2

[5] = tested on: S. aureus Newman; assay: as above; settings: main component drawn
Summary of the method: as §2

[6] = tested on: S. pneumoniae D39V; assay: as above; settings: main component drawn
Summary of the method: as §2

[7] = tested on: B. subtilis 168; assay: fitness (endpoint OD595 vs no drug) (fraction); higher = more growth; settings: main component drawn
Summary of the method: as §1
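Wherever Bliss interaction score (quartile over a dose matrix) is given: first quartile when negative (synergy) and third quartile when positive (antagonism).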
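Wherever fitness (endpoint OD595 vs no drug) is given: OD595 on entry to stationary phase over no-drug wells; at most 1.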

CNC(C)C1CCC(N)C(OC2C(N)CC(N)C(OC3OCC(C)(O)C(NC)C3O)C2O)O1 (stereo not drawn) [Gentamicin] + C/C(=C\C(=O)OCCCCCCCCC(=O)O)C[C@@H]1OC[C@H](C[C@@H]2O[C@H]2[C@@H](C)[C@H](C)O)[C@@H](O)[C@H]1O [Pseudomonic acid]
fitness
Settings	first compound 1 µg/mL	first compound 2 µg/mL	first compound 4 µg/mL	first compound 8 µg/mL
[1], partner 0.0313 µg/mL	0.0474	0.0502	0.0545	–
[1], partner 0.0625 µg/mL	0.0311	0.0417	0.0388	–
[1], partner 0.125 µg/mL	0.0416	0.0314	0.0572	–
[2], partner 0.03 µg/mL	–	0.922	0.923	0.881
[2], partner 0.06 µg/mL	–	0.727	0.769	0.673
[2], partner 0.12 µg/mL	–	0.396	0.393	0.323

Settings	Bliss interaction score
[3]	0.0456
[4]	0.0111
[5]	0.0245
[6]	-0.134

CNC(C)C1CCC(N)C(OC2C(N)CC(N)C(OC3OCC(C)(O)C(NC)C3O)C2O)O1 (stereo not drawn) [Gentamicin] + CC(=O)NC[C@H]1CN(c2ccc(N3CCOCC3)c(F)c2)C(=O)O1 [Linezolid]
[7], partner 0.0625 µg/mL, one replicate
Settings	fitness
first compound 0.0625 µg/mL	0.827
first compound 0.125 µg/mL	0.0748
first compound 0.25 µg/mL	0.0626

fitness, [2]
Settings	partner 0.105 µg/mL	partner 0.2 µg/mL	partner 0.21 µg/mL	partner 0.4 µg/mL	partner 0.42 µg/mL	partner 0.8 µg/mL
first compound 2 µg/mL	0.881	0.414	0.767	0.228	0.636	0.0665
first compound 4 µg/mL	0.908	0.408	0.759	0.215	0.6	0.0715
first compound 8 µg/mL	0.843	0.37	0.758	0.212	0.579	0.0595

Settings	Bliss interaction score
[3]	0.144
[4]	0.0779
[5]	0.0901
[6]	-0.136

CNC(C)C1CCC(N)C(OC2C(N)CC(N)C(OC3OCC(C)(O)C(NC)C3O)C2O)O1 (stereo not drawn) [Gentamicin] + CCC(C)C1C(=O)NC(=C)C(=O)NC(C(=O)NC(CSCC(C(=O)N1)NC(=O)/C(=C/C)/NC(=O)C(C(C)CC)N)C(=O)NC2C(SCC(NC(=O)CNC(=O)C3CCCN3C2=O)C(=O)NC(CCCCN)C(=O)NC4C(SCC(NC(=O)CNC(=O)C(NC(=O)C(NC(=O)C(NC(=O)CNC4=O)C)CC(C)C)CCSC)C(=O)NC(CC(=O)N)C(=O)NC(CCSC)C(=O)NC(CCCCN)C(=O)NC5C(SCC6C(=O)NC(C(=O)NC(CSC(C(C(=O)N6)NC(=O)C(NC5=O)C)C)C(=O)NC(CO)C(=O)NC(C(C)CC)C(=O)NC(CC7=CN=CN7)C(=O)NC(C(C)C)C(=O)NC(=C)C(=O)NC(CCCCN)C(=O)O)CC8=CN=CN8)C)C)C)CC(C)C [Nisin]
Settings	fitness
[2], first compound 2 µg/mL, partner 0.4275 µg/mL	0.957
[2], first compound 2 µg/mL, partner 0.855 µg/mL	≥ 1
[2], first compound 2 µg/mL, partner 1.6 µg/mL	0.0179
[2], first compound 2 µg/mL, partner 1.71 µg/mL	0.0948
[2], first compound 2 µg/mL, partner 3.2 µg/mL	0.0145
[2], first compound 2 µg/mL, partner 6.4 µg/mL	0.0183
[2], first compound 4 µg/mL, partner 0.4275 µg/mL	0.999
[2], first compound 4 µg/mL, partner 0.855 µg/mL	≥ 1
[2], first compound 4 µg/mL, partner 1.6 µg/mL	0.0111
[2], first compound 4 µg/mL, partner 1.71 µg/mL	0.07
[2], first compound 4 µg/mL, partner 3.2 µg/mL	0.0177
[2], first compound 4 µg/mL, partner 6.4 µg/mL	0.0081
[2], first compound 8 µg/mL, partner 0.4275 µg/mL	0.99
[2], first compound 8 µg/mL, partner 0.855 µg/mL	0.986
[2], first compound 8 µg/mL, partner 1.6 µg/mL	0.0051
[2], first compound 8 µg/mL, partner 1.71 µg/mL	0.0917
[2], first compound 8 µg/mL, partner 3.2 µg/mL	0.0325
[2], first compound 8 µg/mL, partner 6.4 µg/mL	0.0106
[7], first compound 0.0625 µg/mL, partner 0.5 µg/mL	0.865
[7], first compound 0.0625 µg/mL, partner 1 µg/mL	0.793
[7], first compound 0.125 µg/mL, partner 0.5 µg/mL	0.768
[7], first compound 0.125 µg/mL, partner 2 µg/mL	0.213
[7], first compound 0.25 µg/mL, partner 0.5 µg/mL	0.27
[7], first compound 0.25 µg/mL, partner 1 µg/mL	0.102
[7], first compound 0.25 µg/mL, partner 2 µg/mL	0.057

fitness, [7], one replicate
Settings	partner 1.25 µg/mL	partner 1.6 µg/mL	partner 2.5 µg/mL	partner 3.2 µg/mL	partner 4 µg/mL	partner 5 µg/mL	partner 6.4 µg/mL	partner 8 µg/mL	partner 16 µg/mL
first compound 0.0625 µg/mL	0.861	0.703	0.037	0.0387	0.0303	0.0263	0.0574	0.0215	0.0053
first compound 0.125 µg/mL	0.378	0.504	0.0311	0.0535	0.0234	0.0338	0.0847	0.0224	0.0101
first compound 0.25 µg/mL	0.078	0.0505	0.0563	0.0642	0.0357	0.0313	0.0596	0.0124	0.007

Settings	Bliss interaction score
[3]	-0.0796
[4]	0.227
[5]	0.0431
[6]	-0.0396

Source: the supplement of paper PMC10627819
